Values quoted from earlier work as cited in patent US9229014B2, “Methods of assessing the need for and the effectiveness of therapy with antioxidants” (priority 2004, dated 2016).
Each block holds one molecule with its values, some of them ahead of it.

Tests used:
heart and liver tissues = conditions: ADR-induced rats; for serum and tissue levels of LDH, aminotransferases and ALP: comparison with control group
[1] = lipid-soluble antioxidant

serum and tissue levels of LDH, aminotransferases and ALP (heart and liver tissues): significantly elevated
Molecule: COc1cccc2c1C(=O)c1c(O)c3c(c(O)c1C2=O)C[C@@](O)(C(=O)CO)C[C@@H]3O[C@H]1C[C@H](N)[C@H](O)[C@H](C)O1 [ADR, adriamycin]

Molecule: CC1=C(/C=C/C(C)=C/C=C/C(C)=C/C=C/C=C(C)/C=C/C=C(C)/C=C/C2=C(C)C[C@@H](O)CC2(C)C)C(C)(C)CCC1 [Beta-Cryptoxanthin]
antioxidant activity relative to vitamin E [1]: 3.1 times higher than vitamin E

Molecule: CC1=C[C@H](O)CC(C)(C)[C@H]1/C=C/C(C)=C/C=C/C(C)=C/C=C/C=C(C)/C=C/C=C(C)/C=C/C1=C(C)C[C@@H](O)CC1(C)C [Lutein]
antioxidant activity relative to vitamin E [1]: 2.3 times higher than vitamin E

Molecule: CC(C)=CCC/C(C)=C/C=C/C(C)=C/C=C/C(C)=C/C=C/C=C(C)/C=C/C=C(C)/C=C/C=C(\C)CCC=C(C)C [Lycopene]
antioxidant activity relative to vitamin E [1]: 2.8 times higher than vitamin E

Molecule: N.N.O=C([O-])C1(C(=O)[O-])CCC1.[Pt+2] [Carboplatin]
reduced to oxidized glutathione ratio, antioxidant enzyme activities (inferior colliculus; 4 days after treatment): significantly depressed | nitric oxide and lipid peroxidation, xanthine oxidase, and manganese superoxide dismutase activities (inferior colliculus; not in the cerebellum): significantly increased

serum and tissue levels of LDH, aminotransferases and ALP (heart and liver tissues): prevented the rise
Molecule: low molecular weight heparin [LMWH]
cardiac and hepatic lipid peroxidation induced by ADR (heart and liver tissues): decreased | rise in serum CPK (cardiotoxicity) (heart and liver tissues; LMWH treatment): attenuated

Molecule: CC1=C(/C=C/C(C)=C/C=C/C(C)=C/C=C/C=C(C)/C=C/C=C(C)/C=C/C2=C(C)C[C@@H](O)CC2(C)C)C(C)(C)C[C@H](O)C1 [Zeaxanthin]
antioxidant activity relative to vitamin E [1]: 2.8 times higher than vitamin E
